Reference: patent US7186709B2, “Dihydropyrancarboxamides and uses thereof” (President and Fellows of Harvard College, priority 2002, dated 2007)

Legend:
[1] = system: human A549 lung carcinoma cells; test: genistein suppressor screen (BrdU cytoblot with 100 μM genistein challenge); assay type: cell-based; conditions: A549 cells challenged with 100 μM genistein
Experimental: Both plates of stock solutions (10) were used in phenotypic assays. In particular, we exposed living human A549 lung carcinoma cells to 708 (324+384) stock solutions under two different assay conditions. These experiments were performed with a hand-held pin-transfer tool, though our complete technology platform includes a pin-transfer robot capable of mapping into multiple microtiter plates. In certain embodiments, cultured cells exposed to 5-bromodeoxyuridine (BrdU) will incorporate this base analog into their DNA when actively dividing, and this incorporation can be detected by cytoblot assay using antibodies directed against BrdU (B. R. Stockwell, S. J. Haggarty, S. L. Schreiber, High-throughput screening of small molecules in miniaturized mammalian cell-based assays involving post-translational modifications, Chem. Biol. 6 (1999) 71–83). […] Thus, ‘hits’ in the former assay are detected as a loss of signal in a high-signal array (FIG. 14(a)), while ‘hits’ in the latter assay are detected as a gain of signal in a lowsignal array (FIG. 14(b)). […]
For each of these assays, aliquots from each of the two plates (10) were exposed to cells in duplicate to ensure the fidelity of the results. Compounds were scored as ‘hits’ only if they scored strongly in both replicates of a given experiment. […]

human Eg5 = target: T1, human Eg5 (Homo sapiens, UniProt P52732); test: steady-state Eg5 ATPase assay (NADH-coupled); assay type: biochemical; conditions: library screen
T1 construct: 1 μM microtubules and 40 nM Eg5-367H; His6 (C); made in house; host or cells: pRSETa backbone
T1 sequence (P52732 1-367): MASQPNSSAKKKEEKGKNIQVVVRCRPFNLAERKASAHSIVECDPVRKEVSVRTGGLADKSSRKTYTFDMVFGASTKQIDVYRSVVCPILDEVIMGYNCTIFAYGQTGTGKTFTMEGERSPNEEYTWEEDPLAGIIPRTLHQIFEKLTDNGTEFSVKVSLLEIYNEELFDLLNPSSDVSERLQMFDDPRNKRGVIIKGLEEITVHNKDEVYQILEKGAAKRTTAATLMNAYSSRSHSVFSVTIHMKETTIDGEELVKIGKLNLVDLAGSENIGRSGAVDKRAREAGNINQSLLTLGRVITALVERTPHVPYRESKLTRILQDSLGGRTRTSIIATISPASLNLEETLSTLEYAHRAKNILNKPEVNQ
Source text: Coding regions for the expression of C-terminally His6-tagged constructs of human Eg5 were generated by polymerase chain reaction using a pBluescript template containing full length human Eg5 [23] and the following primers: a common N-terminal primer 5′-[…] and specific C-teminal primers; 5′-[…] (hEg5–367H), 5′-[…] (hEg5–405H), 5′-[…] (hEg5–437H). The PCR products were ligated into a pRSETa backbone. Eg5 protein constructs were expressed and purified as described previously [Woehike, G., Ruby, A. K., Hart, C. L., Ly, B., Hom-Booher, N. and Vale, R. D. (1997) Microtubule interaction site of the kinesin motor. Cell. 90, 207–216]. […] The concentration of Eg5 was measured using the Edelhoch [Pace, C. […]
We measured the ATPase activity of Eg5 in vitro using an assay that couples the hydrolysis of ATP to the oxidation of NADH [Woehike, G., Ruby, A. K., Hart, C. […] In the assay, the concentration of ATP remains constant however, the decrease in NADH fluorescence is a convenient measure of the amount of ATP turned over. […] Time-points for NADH fluorescence were measured in 384 well black plates (NalgeneNUNC) by a Wallac Victor^2 1420 multilabel counter, umbelliferone filter set (excitation: 355 nm, emission: 420 nm), and the steady-state rate of fluorescence decay was calculated using a linear fit by Microsoft Excel. […]

Eg5 inhibitory activity (human Eg5)	Compound	BrdU incorporation judged by cytoblot assay [1]
–	O=c1c(-c2ccc(O)cc2)coc2cc(O)cc(O)c12 [genistein, 4′,5,7 trihydroxyisoflavone]	impaired
found to inhibit Eg5	CCO[C@H]1OC(C(=O)NCc2ccc(F)cc2)=C[C@@H](c2ccccc2)[C@H]1CCCO	–
